For assay [1], the system named is neurons derived from human Pluripotent Stem Cells (hPSC). As to the kind of experiment: TDP-43 localisation (immunofluorescence) after proteasome inhibitor treatment of hPSC-derived neurons. It counts as cell-based. The note with it: MG132 applied for 24 hrs. As to the method:
(§1) In contrast, DEGs identified in THY1-cells were connected to cellular stresses previously associated with ALS^1,2 (FIG. 7D) and many were shared with transcriptional changes identified in patients' excitatory cells as a whole (FIG. 8B). […] It was next asked if aspects of these changes could be modeled in vitro using neurons derived from human Pluripotent Stem Cells (hPSC) (FIG. 15A).
Human embryonic stem cells were cultured in mTESR (Stemcell technologies) on matrigel (Corning). Neurons were generated from HuES-3-Hb9:GFP based on the motor neuron differentiation protocol previously described^27. Upon completion of the differentiation protocol, cells were sorted via flow-cytometry based on GFP signal intensity to yield GFP-positive neurons that were plated on PDL/laminin-coated plates (Sigma, Life technologies). Neurons were maintained in Neurobasal medium (Life Technologies) supplemented with N2 (Stemcell technologies), B27 (Life technologies), glutamax (Life technologies), non-essential amino acids (Life technologies), and neurotrophic factors (BDNF, GDNF, CNTF), and were grown for 28 days before the application of the proteasome inhibitors MG132 for 24 hrs.

The test system is the same in assay [2]. As to the kind of experiment: Bulk RNA-sequencing of hPSC-derived neurons after proteasome inhibitor treatment. It counts as cell-based. The conditions noted are these: MG132 applied for 24 hrs, compared with excitatory neurons from sALS patients. As to the method: as §1
Human embryonic stem cells were cultured in mTESR (Stemcell technologies) on matrigel (Corning). Neurons were generated from HuES-3-Hb9:GFP based on the motor neuron differentiation protocol previously described^27. Upon completion of the differentiation protocol, cells were sorted via flow-cytometry based on GFP signal intensity to yield GFP-positive neurons that were plated on PDL/laminin-coated plates (Sigma, Life technologies). […]
RNA was extracted using RNeasy Plus kit (Qiagen), libraries were prepared using the Illumina TruSeq RNA kit v2 according to the manufacturer's directions, and sequenced at the Broad Institute core with samples randomly assigned between two flow chambers. […] The read counts were obtained from the aligned BAM-files in R using Rsubread. Differential gene expression was analyzed from the read counts in DESeq2 using a Wald's test for the treatment dosage and controlling for the sequencing flow cell.

Molecules are shown by their SMILES. Where a SMILES comes first, the peptide text is derived from it. The star is where a group is joined. Cbz = O=C(OCc1ccccc1)*

`CC(C)C[C@@H](C=O)NC(=O)[C@H](CC(C)C)NC(=O)[C@H](CC(C)C)NC(=O)OCc1ccccc1` [MG132] (Cbz-Leu-Leu-Leu-aldehyde): in assay [1], the “nuclear loss of TDP-43” value is recorded as “sufficient to induce nuclear loss of TDP-43”. In assay [2], the “transcriptomic changes after treatment (RNA-sequencing)” value is given as “widespread transcriptomic changes after treatment”.

Source of the values: patent US20220160750A1, “SINGLE-NUCLEI CHARACTERIZATION OF AMYOTROPHIC LATERAL SCLEROSIS FRONTAL CORTEX” (President and Fellows of Harvard College, priority 2020, published 2022).
